Key:
[1] = Particle size determinations for urolithin A; assay type: physicochemical; details: for D10 / D50 / D90: Malvern Particle Size analyzer, before and after micronization
Procedure: The particle size of urolithin A was reduced in a controlled manner using an MC50 Spiral Jetmill, using filtered nitrogen, with a feed rate of 240 g/hr, a Venturi pressure of 12 bar, and a mill pressure of 12 bar. Different particle size distributions of urolithin A were determined on a Malvern Particle Size analyzer (Malvern Instruments, UK). Three samples were evaluated in depth.

in vivo = test: in vivo; design: species or system male Sprague-Dawley rats; details: male, Sprague-Dawley, rat, po, 25 mg/kg
Procedure: The solutions for gavage were prepared as follows: 35 mg of urolithin A powder was diluted in 7 ml of 15% DMSO, 0.5% methyl cellulose/0.25% Tween 80 in water, resulting in a 5 mg/ml fine suspension. The DMSO was obtained from BDH, methyl cellulose was obtained from Sigma, and Tween 80 was obtained from Sigma-Aldrich.
Blood was collected from the rats by jugular vein cannulation at different time points, and urolithin A was quantified in the plasma to determine its pharmacokinetic profile following oral gavage of Sample #1, Sample #2, and Sample #3. The study was repeated on three rats for each sample. […]

myotubes = details: in vitro; cited from earlier work
[2] = micronized urolithin used in the formulations of Example 1

Structure (SMILES) | D10 [1] | D50 [1] | D90 [1] | Cmax (in vivo) | Relative Cmax (% of non-micronized Cmax) (in vivo) | Relative bioavailability (% AUC of non-micronized urolithin A) (in vivo) | AUC (in vivo; AUC) | Tmax (in vivo; Tmax (h)) | AUC (in vivo) | Tmax (in vivo) | fold increase in the Cmax in comparison to Sample #1 (in vivo) | increase in the AUC in comparison to Sample #1 (in vivo) | relative increase in the Cmax in comparison to Sample #1 (in vivo) | effect on mean diameter of myotubes (myotubes) | D10, actual particle size [1, 2] | D50, actual particle size [1, 2] | D90, actual particle size [1, 2]
O=c1oc2cc(O)ccc2c2ccc(O)cc12 [Sample #1, Urolithin A] | 1.03 μm | 53.4 μm | 365 μm | 17.1 ng/mL | 100% | 100% | 75.1 ng·h/mL | 15 min | – | – | – | – | – | – | – | – | –
O=c1oc2cc(O)ccc2c2ccc(O)cc12 [Sample #2, Urolithin A] | 0.272 μm | 2.17 μm | 6.84 μm | 37 ng/mL | 216% | 128% | – | – | 96.2 ng·h/mL | 19.8 min | 2.16 fold | 28% | 116% | – | – | – | –
O=c1oc2cc(O)ccc2c2ccc(O)cc12 [Sample #3, Urolithin A] | 0.597 μm | 5.67 μm | 40.1 μm | 17.4 ng/mL | 102% | 126% | – | – | 94.8 ng·h/mL | 30 min | – | 26% | – | – | – | – | –
O=c1oc2cc(O)ccc2c2ccc(O)cc12 [Urolithin A] | – | – | – | – | – | – | – | – | – | – | – | – | – | not seen | 0.7 μm | 3.9 μm | 11.5 μm
O=c1oc2cc(O)ccc2c2ccccc12 [Urolithin B] | – | – | – | – | – | – | – | – | – | – | – | – | – | increased the mean diameter of myotubes | – | – | –
